Laboratory results taken from patent publication US5866588A, “Imidazopyridine derivatives” (British Biotech Pharmaceuticals Ltd., priority 1995, dated 1999).

Legend:
[1] = system: PAF-Induced Platelet Aggregation; test: Inhibition of PAF-Induced Platelet Aggregation; type: cell-based, rabbit (New Zealand White); conditions: Oryctolagus cuniculus; rabbit platelet-rich plasma, PAF 100 ngml^-1
Protocol: Inhibition of PAF-Induced Platelet Aggregation
Male New Zealand White rabbits (3.0-3.5 kg) were anaesthetised by intravenous administration of sodium pentobarbitone, 18 mg.ml^-1, via a marginal ear vein. The trachea was exposed and connected to a respiratory pump (Harvard UK) to provide artificial ventilation. A carotid artery was exposed and cannulated and the animal was exsanguinated. Whole blood was collected in a syringe containing tri-sodium citrate (3.8% w/v) to a ratio of 1 part citrate:9 parts blood.
Collected blood was centrifuged at 180×g for 15 minutes at room temperature (21° C.) to prepare platelet-rich plasma (PRP). The remaining blood was then centrifuged at 1800×g for 10 minutes at room temperature to obtain platelet poor plasma (PPP).
Platelet count of the PRP was measured using a Technicon H1 blood cell differential analyser (Bayer Diagnostics UK) and adjusted with PPP to obtain a final platelet count of 500,000 platelets per μl of plasma, this being the normal physiological platelet count for rabbits. Corrected PRP was left to equilibrate at room temperature for 30 minutes before use.
Aggregation studies were carried out using a 4-channel aggregometer (PAP-4C, BioData USA) as follows: 400 μl aliquots of PRP were placed in siliconised cuvettes and incubated to 37° C. for 1 to 2 minutes in the heating block of the aggregometer. Baseline (100% aggregation) was set up using PPP (500 μl in a siliconised cuvette). The PRP was placed into a measuring well of the aggregometer, and a stirrer bar was added. The sample was stirred at 1000 rpm. The machine was activated to set the 0% aggregation level. Test compound or vehicle (50 μl) was added to the PRP, where any effects on the baseline was noted. PAF (100 ngml^-1 as 50 μl aliqout) was added to the PRP 3 minutes after test compound or vehicle. Aggregation was measured for a further 4 minutes after PAF addition and the maximum aggregation over the 4 minutes was recorded.
The investigation of different concentrations of test compound was performed in triplicate. Data were expressed as […] of the sample and test compound data were compared to vehicle data to obtain % inhibition of the PAF-induced aggregation from which IC50 values could be determined.
PAF was made up in sterile saline (NaCl 0.9% w/v) containing BSA (0.25% w/v) from an initial stock solution (10 mgml^-1 in EtOH). Test compounds were made up as 1×10^-3 M stock solutions in sterile saline containing molar equivalents of 1N HCl (v/v) or in DMSO.
In the results which follow, a comparison compound A was included. Compound A was prepared as described in EP-A-260613 (G. D. Searle), but is not part of the present invention. As appears from the results of the comparison, compounds of this invention, all of which incorporate a fragment capable of H1 antagonist activity, are observed to show improved PAF antagonist activity over compound A.

[2] = biological target: T1, histamine-1 receptors on Hela-S3 cells (Homo sapiens, UniProt P35367); test: Inhibition of [^3 H]-Pyrilamine Binding to Histamine-1 Receptors on Hela-S3 Cells; conditions: 0.5 h; 1 μM test compound; [^3 H]-pyrilamine remaining specifically bound; 37° C., 30 minutes; read-out: % Specific Binding at 1 μM
T1 construct: histamine-1 receptors on Hela-S3 cells (American Type Culture Collection); host or cells: HeLa-S3 cells (intact cell suspension)
T1 sequence (P35367 whole entry): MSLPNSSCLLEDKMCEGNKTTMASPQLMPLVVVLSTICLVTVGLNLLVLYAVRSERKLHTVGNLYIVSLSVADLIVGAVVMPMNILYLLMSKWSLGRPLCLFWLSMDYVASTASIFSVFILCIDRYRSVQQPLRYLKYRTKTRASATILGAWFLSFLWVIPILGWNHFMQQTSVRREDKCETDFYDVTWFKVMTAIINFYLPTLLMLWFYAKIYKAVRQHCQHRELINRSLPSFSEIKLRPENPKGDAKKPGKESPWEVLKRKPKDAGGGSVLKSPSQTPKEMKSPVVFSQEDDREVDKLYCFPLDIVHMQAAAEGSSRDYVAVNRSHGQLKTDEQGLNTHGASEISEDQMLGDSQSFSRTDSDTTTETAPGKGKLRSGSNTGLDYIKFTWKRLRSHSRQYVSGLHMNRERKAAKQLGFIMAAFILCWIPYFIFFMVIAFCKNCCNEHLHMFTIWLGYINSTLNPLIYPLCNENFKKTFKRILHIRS
Protocol: Inhibition of [^3 H]-Pyrilamine Binding to Histamine-1 Receptors on Hela-S3 Cells
The inhibition of [^3 H]-pyrilamine binding to histamine-1 receptors on Hela-S3 cells (American Type Culture Collection) was determined by isotopic labelling and filtration techniques. A suspension of the cells in buffer (25 ml, 0.5% Bovine Serum Albumin, 0.1% sodium azide, phosphate buffered saline (PBS)) was centrifuged at 1000 rpm for 5 minutes in a JOUAN CR 422 centrifuge, collected, resuspended in buffer (25 ml) and spun again. The cells were counted using a haemocytometer and resuspended in buffer to provide a final concentration of 4.5×10^6 cells ml^-1. A portion of the Hela-S3 cell suspension (1 ml) was added to each assay tube containing 25 μl of vehicle (50% DMSO/buffer) or 25 μl of test compound solution (dissolved in DMSO and diluted with sufficient PBS to give a final test concentration of 1 μM) and 25 μl of [^3 H]-pyrilamine (supplied by Amersham International and diluted with PBS to 3 nM). The tubes were mixed, incubated at 37° C. for 30 minutes and then spun at 4° C. at 2000 rpm for 2 minutes. The supernatant was removed and the cells resuspended in buffer (repeated ×2). The cells were suspended in 300 μl of a 2:1 solution of 1M sodium hydroxide and 1% sodium dodecyl sulphate. The tubes were left ovemight before the contents were tranferred to a scintillation vial, treated with 10 ml, OPTIPHASE MP scintillation fluid (OPTIPHASE MP is a trade mark) and the radioactivity counted in a scintillation counter. Non-displacable binding (NDB) was determined using Astemizole (5×10^-5 M) in place of test compounds. Defining the counts for total binding from the vehicle control sample as "TB" and the counts for total binding with antogonist as "TBA" the percentage specific binding (% SB) can be determined from the following equation.

| Structure (SMILES) | IC50 [1] [nM] | activity at 1 µM [2] [%] |
| --- | --- | --- |
| CCCCN(C/C=C/c1cccc(/C(=C/CN2CCCC2)c2ccc(C)cc2)n1)C(=O)c1ccc(Cn2c(C)nc3cnccc32)cc1 [Example 22, N-Butyl-4-(1H-2-methylimidazo[4,5-c]pyridin-1-ylmethyl)-N-{3-[6-(3-pyrrolidin-1-yl-1-{4-tolyl}-prop-1E-enyl)-pyridin-2-yl]-prop-2E-enyl}-benzamide] | 62 | 31 |
| Cc1ccc(/C(=C\CN2CCCC2)c2cccc(/C=C/CN(C(=O)c3ccc(Cn4c(C)nc5cnccc54)cc3)C3CCCC3)n2)cc1 [Example 8, N-Cyclopentyl-4-(1H-2-methylimidazo[4,5-c]pyridin-1-ylmethyl)-N-{3-[6-(3-pyrrolidin-1-yl-1-{4-tolyl}-prop-1E-enyl)-pyridin-2-yl]-prop-2E-enyl}-benzamide] | 92 | 34 |
| Cc1ccc(/C(=C\CN2CCCC2)c2cccc(/C=C/CN(C(=O)c3ccc(Cn4c(C)nc5cnccc54)cc3)C3CC(C)CC(C)C3)n2)cc1 (centres unmarked) [Example 11, N-3,5-Dimethylcyclohexyl-4-(1H-2-methylimidazo[4,5-c]pyridin-1-ylmethyl)-N-{3-[6-(3-pyrrolidin-1-yl-1-{4-tolyl}-prop-1E-enyl)-pyridin-2-yl]-prop-2E-enyl)-benzamide] | 176 | 60 |
| Cc1ccc(/C(=C\CN2CCCC2)c2cccc(/C=C/CN(C(=O)c3ccc(Cn4c(C)nc5cnccc54)cc3)C(C)(C)C)n2)cc1 [Example 10, N-tert-Butyl-4-(1H-2-methylimidazo[4,5-c]pyridin-1-ylmethyl)-N-{3-[6-(3-pyrrolidin-1-yl-1-{4-tolyl}-prop-1E-enyl)-pyridin-2-yl]-prop-2E-enyl}-benzamide] | 2010 | 62 |
| CCC(C)N(C/C=C/c1cccc(/C(=C/CN2CCCC2)c2ccc(C)cc2)n1)C(=O)c1ccc(Cn2c(C)nc3cnccc32)cc1 (racemic) [Example 9, N-(R,S) sec-Butyl-4-(1H-2-methylimidazo[4,5-c]pyridin-1-ylmethyl)-N-(E)-{3-[6-(3-pyrrolidin-1-yl-1-{4-tolyl}-prop-1E-enyl)-pyridin-2-yl]-prop-2-enyl}-benzamide] | 43 | 63 |
| Cc1ccc(/C(=C\CN2CCCC2)c2cccc(/C=C/CN(CCC(C)C)C(=O)c3ccc(Cn4c(C)nc5cnccc54)cc3)n2)cc1 [Example 6, N-(3-Methyl-but-1-yl)-4-(1H-2-methylimidazo[4,5-c]pyridin-1-ylmethyl)-N-{3-[6-(3-pyrrolidin-1-yl-1-{4-tolyl}-prop-1E-enyl)-pyridin-2-yl]-prop-2E-enyl}-benzamide] | 333 | 29 |
| Cc1ccc(/C(=C\CN2CCCC2)c2cccc(/C=C/CN(C(=O)c3ccc(Cn4c(C)nc5cnccc54)cc3)C(C)C)n2)cc1 [Example 12, N-iso-Propyl-4-(1H-2-methylimidazo[4,5-c]pyridin-1-ylmethyl)-N-{3-[6-(3-pyrrolidin-1-yl-1-{4-tolyl}-prop-1E-enyl)-pyridin-2-yl]-prop-2E-enyl)-benzamide] | 58 | 64 |
| CN(C(=O)c1ccc(Cn2cnc3cnccc32)cc1)C1CCCCC1 [Compound A, reference compound] | 74000 | – |
| Cc1ccc(/C(=C\CN2CCCC2)c2cccc(CCCN(C(=O)c3ccc(Cn4c(C)nc5cnccc54)cc3)C3CCCCC3)n2)cc1 [Example 17, N-Cyclohexyl-4-(1H-2-methylimidazo[4,5-c]pyridin-1-ylmethyl)-N-{3-[6-(3-pyrrolidin-1-yl-1-{4-tolyl}-prop-1E-enyl)-pyridin-2-yl]-propyl}-benzamide] | 315 | 58 |
| Cc1ccc(/C(=C\CN2CCCC2)c2cccc(/C=C/COC(=O)c3ccc(Cn4c(C)nc5cnccc54)cc3)n2)cc1 [Example 1, 4-(1H-2-Methylimidazo[4,5-c]pyridin-1-ylmethyl)benzoic acid 3-[6-(3-pyrrolidin-1-yl-1-{4-tolyl}-prop-1E-enyl)-pyridin-2-yl]prop-2E-enyl ester] | 2100 | 16 |
| Cc1ccc(/C(=C\CN2CCCC2)c2cccc(CCCOC(=O)c3ccc(Cn4c(C)nc5cnccc54)cc3)n2)cc1 [Example 2, 4-(1H-2-Methylimidazo[4,5-c]pyridin-1-ylmethyl)benzoic acid 3-[6-(3-pyrrolidin-1-yl-1-{4-tolyl}-prop-1E-enyl)-pyridin-2-yl]propyl ester] | 542 | 15 |
| Cc1ccc(/C(=C\CN2CCCC2)c2cccc(/C=C/CNC(=O)c3ccc(Cn4c(C)nc5cnccc54)cc3)n2)cc1 [Example 5, 4-(1H-2-Methylimidazo[4,5-c]pyridin-1-ylmethyl)-N-{3-[6-(3-pyrrolidino-1-{4-tolyl}-prop-1E-enyl)-pyridin-2-yl]-prop-2E-enyl}-benzamide] | 2200 | 16 |
| Cc1ccc(/C(=C\CN2CCCC2)c2cccc(/C=C/CN(C)C(=O)c3ccc(-n4c(C)nc5cnccc54)cc3)n2)cc1 [Example 26, N-Methyl-4-(1H-2-methylimidazo[4,5-c]pyridin-1-yl)-N-{3-[6-(3-pyrrolidin-1-yl-1-{4-tolyl}-prop-1E-enyl)-pyridin-2-yl]-prop-2E-enyl}-benzamide] | – | 26 |
| Cc1ccc(/C(=C\CN2CCCC2)c2cccc(/C=C/CN(CC(C)C)C(=O)c3ccc(Cn4c(C)nc5cnccc54)cc3)n2)cc1 [Example 7, N-iso-Butyl-4-(1H-2-methylimidazo[4,5-c]pyridin-1-ylmethyl)-N-{3-[6-(3-pyrrolidin-1-yl-1-{4-tolyl}-prop-1E-enyl)-pyridin-2-yl]-prop-2E-enyl}-benzamide] | 133 | 40 |
